Experiments:
[1] = Serum tumor markers CEA and CA19-9 by ECLIA in high-fat fed mice; format: in vivo
Source text: Finally, to detect whether tumor invasion was caused during intervention or not, contents of a carbohydrate antigen (CA 19-9) and a carcinoembryonic antigen (CEA) in mouse serum were detected and compared by using automatic electrochemiluminescence immunoassay system Cobas® 8000 (Roche, USA) and electrochemiluminescence immunoassay (ECLIA).

[2] = tested on: High-fat fed C57BL6/J mice; assay: High-fat fed C57BL/6J mice, valeric acid gavage: body weight, food intake, blood glucose homeostasis (OGTT); format: in vivo
Source text: In an animal experiment of high-fat model mice at a first stage, 6-8-week-old male C57BL/6J mice without specific pathogens (SPF grade) are firstly purchased from Liaoning Changsheng Biotechnology Co., Ltd., Experimental animal feeds are ordered from Beijing keaoxieli Feed Co., Ltd., including a mouse AIN-93M maintenance feed and a high-fat feed with a fat energy supply ratio of 45%; the nutrient compositions of the two feeds are in accordance with a rodent experimental animal feed formula recommended by U.S. Department of agriculture; and the AIN-93M maintenance feed is stored at a room temperature, and the high-fat feed with the energy supply ratio of 45% is stored at the low temperature of −20° C.
The animal experimental research was implemented in accordance with the rules and regulations required by Experimental Animal Management Committee of Harbin Medical University, and animals were raised in a laboratory of Clean Experimental Animal Center of School of Public Health of Harbin Medical University. The laboratory conditions are as follows: a temperature is 21.0 (±1.5) degrees Celsius, a relative humidity is 50 (±5)%, lighting is alternately performed for 12:12 hours by using a fluorescent lamp, the feed is freely taken, and distilled water is freely drunk. After being received, 6-8-week-old C57BL6/J mice as a kind of SPF experimental animals were fed in a single cage, and were arranged to freely drink the distilled water and uptake an animal feed for a week of adaptive feeding. Subsequently, the mice were weighed and randomly divided into 4 experimental groups according to the weights of the mice; and the 4 experimental groups were fed with the AIN-93M maintenance feed and the 45% high-fat feed respectively, and were treated with phosphate buffer salt solution (PBS) and different metabolite solutions by oral gavage. […]
During the feeding period of experimental animals, a scattered food amount and a leftover food amount of mice were weighed with an electronic scale and recorded and fresh feeds were changed every day, and a daily food intake was calculated. […] The weights of the mice were weighed and recorded once a week, and a clean animal bedding subjected to high-pressure disinfection was replaced. […] According to conversion of oral and intravenous doses in Pharmacological Experimental Methodology edited by Shuyun Xu and an equivalent dose ratio of rats and mice, a dose of the valeric acid is finally determined as 75 mg/kg which is approximately equal to ⅛ of a half lethal dose of the valeric acid, meeting a safety range in toxicology. […]

[3] = tested on: Leptin receptor gene deficient db/db mice; assay: Type 2 diabetes model db/db mice: food intake, body weight, blood glucose-related indexes; format: in vivo
Protocol: The following drugs are taken as comparative examples: • 1. Comparative example where an existing drug serves as a positive control • (1) High-fat fed C57BL6/J mice • Sodium butyrate gavage intervention group: 75.0 mg/kg • (2) Type 2 diabetes model db/db mice • Sodium butyrate gavage intervention group: 75.0 mg/kg • Harmine gavage intervention group: 10.0 mg/kg • Metformin gavage intervention group: 100.0 mg/kg • (3) Cell line of mouse insulinoma islet β cells (Beta-TC-6) • Sodium butyrate intervention group: 1.0 mmol/L • Harmine intervention group: 10.0 μmmol/L • (4) Mouse islet β primary cell • Sodium butyrate intervention group: 1.0 mmol/L • Harmine intervention group: 10.0 μmmol/L • 2. A control test is taken as a comparative example • (1) High-fat fed C57BL6/J mice • Ordinary feed feeding group, and high-fat feed PBS gavage group • (2) Type 2 diabetes model db/db mice • Control feeding group and PBS gavage group • (3) Cell line of mouse insulinoma islet β cells (Beta-TC-6) • Blank control group, and palmitic acid (PA) intervention negative control group • (4) Mouse islet β primary cell • Blank control group, and PA intervention negative control group • Results are as follows:
(II) In the animal test, the therapeutic effect of the valeric acid on diabetes is observed by using Leptin receptor gene deficient db/db mice (purchased from Nanjing Junke Biotechnology Co., Ltd.) as test subjects.

[4] = tested on: cell proliferation and differentiation pathway; assay: WB and ELISA of classical proteins in a cell proliferation and differentiation pathway in mouse pancreatic tissues; format: in vivo, mice
Protocol: (§1) During the subsequent test, in order to observe pathological morphologies of animal tissues, paraffin sections of mouse tissues were made and subjected to HE staining, immunohistochemical staining and immunofluorescence staining. Also, mouse pancreatic tail tissues in a valeric acid intervention group and a control group were taken out from the −80° C. refrigerator and underwent TMT labeled quantitative proteome detection of the animal tissues, and differential proteins were subjected to a Western Blot test and a real-time fluorescence quantitative polymerase chain reaction (QRT PCR) test for the animal tissues to verify test results.

[5] = tested on: db/db mouse islet tissues; assay: Histopathology of pancreatic tissues of db/db mice (HE, immunofluorescence); format: in vivo
Protocol: During the subsequent test, in order to observe pathological morphologies of animal tissues, paraffin sections of mouse tissues were made and subjected to HE staining, immunohistochemical staining and immunofluorescence staining. […] Histopathological examination is also performed on the pancreatic tissues of db/db mice.

[6] = tested on: 3-phosphoinositide dependent protein kinase 1 (Pdpk1); assay: TMT proteomic detection of pancreatic tissues, HFD+VA vs HFD+PBS; format: in vivo, mice; details: TMT proteomics
Protocol: as §1
Through functional annotation of GO and KEGG databases, metabolic pathways such as energy and glycolipid metabolism, glycogen synthesis, redox and phosphorylation are enriched (FIG. 19).

[7] = 8 weeks of intervention, HF-V vs HF-PBS control group

CCCCC(=O)O [valeric acid]
CA19-9 in mouse serum ([1]; HF+VA mouse serum): < 0.600 U/mL | CEA in mouse serum ([1]; HF+VA mouse serum): < 0.200 U/mL | cancer invasion ([1]; from CEA and CA19-9 serum markers): does not occur | areas under OGTT-2h blood glucose curves [2, 7]: significantly lower | fasting blood glucose [2, 7]: significantly lower | fasting insulin contents [2, 7]: significantly lower | weights of mice ([2]; valeric acid 75 mg/kg/d gavage (as sodium valerate), vs HF-PBS group, after the sixth week): significantly lower | area under the OGTT curve ([3]; compared with metformin and Harmine groups): smallest | decrease of fasting blood glucose ([3]; compared with the PBS control group): ~10 mmol/L | insulin secretion ([3]; comparison among groups / vs PBS control group): best | weights ([3]; vs PBS control group): decreased significantly | expression level of ERK1/2 [4]: significantly increased | expression level of FoxO1A [4]: significantly increased | expression level of MafA [4]: significantly increased | expression level of Nkx6.1 [4]: significantly increased | expression level of PDX1 [4]: significantly increased | expression level of p-ERK1/2 [4]: significantly increased | islet area ([5]; HE staining): increased significantly | islet cells ([5]; HE staining): increased significantly | proportion of Ki67 (+) ([5]; Ki67/insulin staining): increased significantly | ratio of the insulin to glucagon ([5]; immunofluorescence): increased significantly | expression level of Pdpk1 in the mouse pancreatic tissues [6]: significantly increased
